Results published in ChEMBL document CHEMBL4477272, “Toward chelerythrine optimization: Analogues designed by molecular simplification exhibit selective growth inhibition in non-small-cell lung cancer cells” (Bioorg Med Chem, 2016).
Active and inactive are the calls of the source. The calls are words filed in the database; no cut-off is given here.

Assays:
[1] = system: A549; experiment: Cell cycle arrest in human A549 cells assessed as decrease in S phase at 50 to 100 uM after 24 hrs by propidium iodide staining based flow cytometry; assay type: functional
[2] = system: A549; experiment: Cytostatic activity against human A549 cells assessed as inhibition of colony formation after 24 hrs measured after 10 days by crystal violet staining based method; assay type: functional, cell-based
[3] = system: A549; experiment: Cell cycle arrest in human A549 cells assessed as accumulation at G0/G1 phase after 24 hrs by propidium iodide staining based flow cytometry; assay type: functional
[4] = system: A549; experiment: Cytotoxicity against human A549 cells assessed as reduction in cell viability after 24 hrs by MTT assay; assay type: functional, cell-based; settings: A549, 24 h
[5] = Selectivity index, ratio of IC50 for human LL24 cells to IC50 for human A549 cells
[6] = system: A549; experiment: Cell cycle arrest in human A549 cells assessed as accumulation at G0/G1 phase at 75 uM after 24 hrs by propidium iodide staining based flow cytometry (reference value: 33.4%); assay type: functional
[7] = system: HUVEC; experiment: Cytotoxicity against HUVEC assessed as reduction in cell viability after 24 hrs by MTT assay; assay type: cell-based; settings: Homo sapiens
[8] = system: NCI-H1299; experiment: Cytostatic activity against human NCI-H1299 cells assessed as inhibition of colony formation after 24 hrs measured after 10 days by crystal violet staining based method; assay type: functional, cell-based
[9] = Selectivity index, ratio of IC50 for HUVEC to IC50 for human A549 cells; assay type: toxicity; settings: HUVEC versus A549 cells, read-out: Ratio IC50
[10] = system: NCI-H292; experiment: Cytotoxicity against human NCI-H292 cells assessed as reduction in cell viability after 24 hrs by MTT assay; assay type: functional, cell-based; settings: NCI-H292, 24 h
[11] = system: NCI-H1299; experiment: Cell cycle arrest in human NCI-H1299 cells assessed as accumulation at S phase at 100 uM after 24 hrs by propidium iodide staining based flow cytometry (reference value: 7.8%); assay type: functional
[12] = system: NCI-H1299; experiment: Cell cycle arrest in human NCI-H1299 cells assessed as accumulation at G0/G1 phase at 50 uM after 24 hrs by propidium iodide staining based flow cytometry (reference value: 39%); assay type: functional
[13] = Cytotoxicity against human LL24 cells assessed as reduction in cell viability after 24 hrs by MTT assay; assay type: cell-based; settings: LL24, 24 h
[14] = system: A549; experiment: Cell cycle arrest in human A549 cells assessed as accumulation at G0/G1 phase at 50 uM after 24 hrs by propidium iodide staining based flow cytometry (reference value: 33.4%); assay type: functional
[15] = system: A549; experiment: Cell cycle arrest in human A549 cells assessed as decrease in G2/M phase at 50 to 100 uM after 24 hrs by propidium iodide staining based flow cytometry; assay type: functional
[16] = system: NCI-H1299; experiment: Cell cycle arrest in human NCI-H1299 cells assessed as accumulation at G0/G1 phase at 75 uM after 24 hrs by propidium iodide staining based flow cytometry (reference value: 39%); assay type: functional
[17] = system: NCI-H1299; experiment: Cell cycle arrest in human NCI-H1299 cells assessed as accumulation at G0/G1 phase after 24 hrs by propidium iodide staining based flow cytometry; assay type: functional
[18] = system: NCI-H460; experiment: Cytotoxicity against human NCI-H460 cells assessed as reduction in cell viability after 24 hrs by MTT assay; assay type: functional, cell-based; settings: NCI-H460, 24 h
[19] = system: A549; experiment: Cell cycle arrest in human A549 cells assessed as accumulation at G0/G1 phase at 100 uM after 24 hrs by propidium iodide staining based flow cytometry (reference value: 33.4%); assay type: functional
[20] = system: NCI-H1299; experiment: Cell cycle arrest in human NCI-H1299 cells assessed as accumulation at S phase at 75 uM after 24 hrs by propidium iodide staining based flow cytometry (reference value: 7.8%); assay type: functional
[21] = system: NCI-H1299; experiment: Cell cycle arrest in human NCI-H1299 cells assessed as accumulation at S phase at 50 uM after 24 hrs by propidium iodide staining based flow cytometry (reference value: 7.8%); assay type: functional
[22] = system: NCI-H1299; experiment: Cell cycle arrest in human NCI-H1299 cells assessed as accumulation at G0/G1 phase at 100 uM after 24 hrs by propidium iodide staining based flow cytometry (reference value: 39%); assay type: functional
[23] = system: NCI-H1299; experiment: Cytotoxicity against human NCI-H1299 cells assessed as reduction in cell viability after 24 hrs by MTT assay; assay type: functional, cell-based; settings: NCI-H1299, 24 h
[24] = Selectivity index, ratio of IC50 for HUVEC to IC50 for human NCI-H1299 cells; assay type: toxicity; settings: HUVEC versus NCI-H1299 cells, read-out: Ratio IC50
[25] = Selectivity index, ratio of IC50 for human LL24 cells to IC50 for human NCI-H1299 cells
[26] = Selectivity index, ratio of IC50 for HUVEC to IC50 for human NCI-H460 cells; assay type: toxicity; settings: HUVEC versus NCI-H460 cells, read-out: Ratio IC50
[27] = Selectivity index, ratio of IC50 for human LL24 cells to IC50 for human NCI-H292 cells
[28] = Selectivity index, ratio of IC50 for HUVEC to IC50 for human NCI-H292 cells
[29] = Selectivity index, ratio of IC50 for human LL24 cells to IC50 for human NCI-H460 cells

## Cl.Oc1ccc(CNCc2ccc3c(c2)OCO3)cc1O
[1]
  Activity: Active
[2]
  inhibition: Dose-dependent effect
[3]
  Activity: Dose-dependent effect
[4]
  IC50: 112 µM
[5]
  Ratio IC50: >1.78
[6]
  Activity: 49.6%
[7]
  IC50: > 200 µM
[8]
  inhibition: Dose-dependent effect
[9]
  selectivity ratio: > 1.78
[10]
  IC50: > 200 µM
[11]
  Activity: 17.7%
[12]
  Activity: 53.5%
[13]
  IC50: > 200 µM
[14]
  Activity: 45.9%
[15]
  Activity: Active
[16]
  Activity: 65%
[17]
  Activity: Dose-dependent effect
[18]
  IC50: > 200 µM
[19]
  Activity: 54.3%
[20]
  Activity: 20.4%
[21]
  Activity: 26.8%
[22]
  Activity: 55.8%
[23]
  IC50: > 200 µM

## COc1ccc(CNCc2ccc3c(c2)OCO3)cc1O
[4]
  IC50: > 200 µM
[7]
  IC50: > 200 µM
[10]
  IC50: > 200 µM
[13]
  IC50: > 200 µM
[18]
  IC50: > 200 µM
[23]
  IC50: > 200 µM

## Cl.c1ccc(CNCc2ccc3c(c2)OCO3)cc1
[4]
  IC50: > 200 µM
[24]
  selectivity ratio: > 2.98
[7]
  IC50: > 200 µM
[10]
  IC50: > 200 µM
[25]
  Ratio IC50: >2.98
[13]
  IC50: > 200 µM
[18]
  IC50: > 200 µM
[23]
  IC50: 67.2 µM

## COc1ccc(CN(C)Cc2ccc3c(c2)OCO3)cc1.Cl
[4]
  IC50: > 200 µM
[24]
  selectivity ratio: > 2.62
[7]
  IC50: > 200 µM
[10]
  IC50: > 200 µM
[25]
  Ratio IC50: >2.62
[13]
  IC50: > 200 µM
[18]
  IC50: > 200 µM
[23]
  IC50: 76.4 µM

## COc1cc(CNCc2ccc3c(c2)OCO3)cc(OC)c1OC.Cl
[4]
  IC50: > 200 µM
[24]
  selectivity ratio: > 1.88
[7]
  IC50: > 200 µM
[10]
  IC50: > 200 µM
[25]
  Ratio IC50: >1.88
[13]
  IC50: > 200 µM
[18]
  IC50: > 200 µM
[23]
  IC50: 107 µM

## COc1ccc(CN(C)Cc2ccc3c(c2)OCO3)cc1OC
[4]
  IC50: > 200 µM
[7]
  IC50: > 200 µM
[10]
  IC50: > 200 µM
[13]
  IC50: > 200 µM
[18]
  IC50: > 200 µM
[23]
  IC50: > 200 µM

## COc1ccc(CNCc2ccc3c(c2)OCO3)cc1OC.Cl
[4]
  IC50: 118 µM
[5]
  Ratio IC50: >1.69
[24]
  selectivity ratio: > 2.17
[7]
  IC50: > 200 µM
[9]
  selectivity ratio: > 1.69
[10]
  IC50: > 200 µM
[25]
  Ratio IC50: >2.17
[13]
  IC50: > 200 µM
[18]
  IC50: > 200 µM
[23]
  IC50: 92.3 µM

## COc1ccc2c(c[n+](C)c3c4cc5c(cc4ccc23)OCO5)c1OC [CHELERYTHRINE]
[26]
  selectivity ratio: 0.96
[4]
  IC50: 7.73 µM
[5]
  Ratio IC50: 0.48
[24]
  selectivity ratio: 1.15
[7]
  IC50: 4.93 µM
[9]
  selectivity ratio: 0.64
[10]
  IC50: 4.96 µM
[25]
  Ratio IC50: 0.87
[27]
  Ratio IC50: 0.75
[28]
  Ratio IC50: 0.99
[29]
  Ratio IC50: 0.73
[13]
  IC50: 3.73 µM
[18]
  IC50: 5.14 µM
[23]
  IC50: 4.28 µM

## CN(Cc1ccccc1)Cc1ccc2c(c1)OCO2.Cl
[4]
  IC50: > 200 µM
[24]
  selectivity ratio: > 2.19
[7]
  IC50: > 200 µM
[10]
  IC50: > 200 µM
[25]
  Ratio IC50: >2.19
[13]
  IC50: > 200 µM
[18]
  IC50: > 200 µM
[23]
  IC50: 91.2 µM

## COc1cc(CN(C)Cc2ccc3c(c2)OCO3)cc(OC)c1OC
[4]
  IC50: > 200 µM
[7]
  IC50: > 200 µM
[10]
  IC50: > 200 µM
[13]
  IC50: > 200 µM
[18]
  IC50: > 200 µM
[23]
  IC50: > 200 µM

## COc1ccc(CNCc2ccc3c(c2)OCO3)cc1.Cl
[4]
  IC50: 124 µM
[5]
  Ratio IC50: >1.61
[24]
  selectivity ratio: > 2.71
[7]
  IC50: > 200 µM
[9]
  selectivity ratio: > 1.61
[10]
  IC50: 153 µM
[25]
  Ratio IC50: >2.71
[27]
  Ratio IC50: >1.31
[28]
  Ratio IC50: >1.31
[13]
  IC50: > 200 µM
[18]
  IC50: > 200 µM
[23]
  IC50: 73.7 µM
